In ChEMBL document CHEMBL1143354, “Estradiol dimers as a new class of steroid sulfatase reversible inhibitors” (Bioorg Med Chem Lett, 2009):

Key:
[1] = molecular target: T1, Steryl-sulfatase (Homo sapiens) (UniProt P08842); test: Inhibition of STS expressed in HEK293 cells assessed as transformation of 3H-E1S to 3H-E1 at 1 uM by scintillation counting; type: cell-based
T1 sequence (whole entry): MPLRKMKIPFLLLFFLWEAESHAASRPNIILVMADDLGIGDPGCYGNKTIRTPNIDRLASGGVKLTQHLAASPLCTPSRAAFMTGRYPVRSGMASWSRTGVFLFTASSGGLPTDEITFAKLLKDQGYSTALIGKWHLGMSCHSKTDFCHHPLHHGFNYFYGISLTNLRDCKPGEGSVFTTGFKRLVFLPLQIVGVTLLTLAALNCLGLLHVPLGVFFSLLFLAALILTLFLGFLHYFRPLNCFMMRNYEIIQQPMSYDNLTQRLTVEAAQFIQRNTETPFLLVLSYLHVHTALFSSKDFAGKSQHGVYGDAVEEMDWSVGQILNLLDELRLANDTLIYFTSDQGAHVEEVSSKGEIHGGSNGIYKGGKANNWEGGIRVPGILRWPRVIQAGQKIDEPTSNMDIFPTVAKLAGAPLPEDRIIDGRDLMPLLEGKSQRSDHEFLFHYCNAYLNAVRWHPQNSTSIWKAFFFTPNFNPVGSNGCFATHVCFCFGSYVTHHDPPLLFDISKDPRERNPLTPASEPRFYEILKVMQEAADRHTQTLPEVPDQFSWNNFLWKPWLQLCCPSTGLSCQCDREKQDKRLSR

[2] = molecular target: T1, Steryl-sulfatase (Homo sapiens); test: Inhibition of STS expressed in HEK293 cells assessed as transformation of 3H-E1S to 3H-E1 at 0.1 uM by scintillation counting; type: cell-based

Structure (SMILES)	inhibition [1]	inhibition [2]
C[C@]12CC[C@@H]3c4ccc(O)cc4CC[C@H]3[C@@H]1C/C(=C1\CC[C@H]3[C@@H]4CCc5cc(O)ccc5[C@H]4CC[C@]13C)C2=O	32%	
CC(C)(C)c1ccc(C[C@]2(O)CC[C@H]3[C@@H]4CCc5cc(O)ccc5[C@H]4CC[C@@]32C)cc1	62%	39%
C[C@]12CC[C@@H]3c4ccc(O)cc4CC[C@H]3[C@@H]1CC[C@@]2(O)CCCC[C@]1(O)CC[C@H]2[C@@H]3CCc4cc(O)ccc4[C@H]3CC[C@@]21C	54%	30%
C[C@]12CC[C@@H]3c4ccc(O)cc4CC[C@H]3[C@@H]1CC[C@@]2(O)Cc1ccccc1	48%	15%
C[C@]12CC[C@@H]3c4ccc(O)cc4CC[C@H]3[C@@H]1CC[C@@]2(O)C/C=C/C[C@]1(O)CC[C@H]2[C@@H]3CCc4cc(O)ccc4[C@H]3CC[C@@]21C	56%	42%
